Here are results for 4 compounds from patent publication US5693524A, “Anticoccidial composition of UK-61 689 and Actinomadura mycelium” (Pfizer Inc., priority 1995, dated 1997).

The test system of experiment [1] is coccidiosis. The settings on record: EP application 169011; cited from earlier work.
For experiment [2], the system named is Clostridium perfringens. In words: microbe, parasite or virus in culture. The class given is cell-based. The note with it: 24 h.
Experiment [3] relates to Actinomyces pyogenes. Kind of experiment: In vitro minimal inhibitory concentration (MIC), Actinomyces pyogenes. Type of experiment: cell-based. The settings on record: 24 hours.
In experiment [4] the test system is Treponema hyodysenteriae. In words: In vitro minimal inhibitory concentration (MIC), Treponema hyodysenteriae. Type of experiment: cell-based.
Experiment [5] has as its system Gram-positive microorganisms. Kind of experiment: Inhibitory action against growth of Gram-positive microorganisms in vitro. Type of experiment: cell-based. As for the experimental part:
In Table I, below, the results of in vitro tests are summarized. For this test each organism is inoculated in a series of test tubes containing nutrient medium and varying concentrations of Antibiotic UK-61,689 to determine the minimal concentration of the compound in g/ml which inhibits the growth of the organism over a period of 24 hours (MIC).

Experiment [6] deals with coccidial infections in poultry. Kind of experiment: Activity against coccidial infections in poultry (lesion scores).
Experiment [7] has as its system E. maxima. Kind of experiment: Efficacy against coccidial infection in chickens, E. maxima (lesion scores 0 to 3). The settings on record: in diet at levels of 15 to 120 ppm.
In experiment [8] the test system is E. brunetti. Kind of experiment: Efficacy against coccidial infection in chickens, E. brunetti (lesion scores 0 to 3). The settings on record: in diet at levels of 15 to 120 ppm.
In experiment [9] the test system is E. necatrix. Kind of experiment: Efficacy against coccidial infection in chickens, E. necatrix (lesion scores 0 to 3). The note with it: in diet at levels of 15 to 120 ppm.
Experiment [10] relates to E. acervulina. In words: Efficacy against coccidial infection in chickens, E. acervulina (lesion scores 0 to 3). The note with it: in diet at levels of 15 to 120 ppm, evaluated after five days.
Experiment [11] deals with Eimeria tenella. In words: Efficacy against coccidial infection in chickens, Eimeria tenella (lesion scores 0 to 4). The settings on record: in diet at levels of 15 to 120 ppm.

Structures are written as SMILES. Values after ≈ are worked out from the molar mass of the structure shown. Read-outs that look alike come from different tables or passages of the source.

Regarding `COC1CCC(OC2CC(C3OC(C)(OC)C(C)CC3C)OC2C2(C)CCC(C3(C)CCC4(CC(O)C(C)C(C(C)C5OC(O)(CC(=O)O)C(C)C(OC6CCC(OC)C(C)O6)C5OC)O4)O3)O2)OC1C` (stereo not shown) [CP-70,228], the “antibiotic / anticoccidial effectiveness” value in experiment [1] was “antibiotically effective in controlling coccidiosis”.
On to `COC1CCC(OC2CC(C3OC(C)(OC)C(C)CC3C)OC2C2(C)CCC(C3(C)CCC4(CC(OC)C(C)C(C(C)C5OC(O)(CC(=O)O)C(C)C(OC6CCC(OC)C(C)O6)C5OC)O4)O3)O2)OC1C` (stereo not shown) [CP-70,828], for which, in experiment [1], the “antibiotic / anticoccidial effectiveness” value is on record as “antibiotically effective in controlling coccidiosis”.
On to `COC1CCC(OC2CC(C3OC(C)(O)C(C)CC3C)OC2C2(C)CCC(C3(C)CCC4(CC(O)C(C)C(C(C)C5OC(O)(CC(=O)O)C(C)C(OC6CCC(OC)C(C)O6)C5OC)O4)O3)O2)OC1C` (stereo not shown) [UK-58,852], for which, in experiment [1], the “antibiotic / anticoccidial effectiveness” value was “effective antibiotic, especially anticoccidial agent”.
Turning to `COC1CCC(OC2CC(C3OC(C)(O)C(C)CC3C)OC2C2(C)CCC(C3(C)CCC4(CC(O)C(C)C(C(C)C5OC(O)(CC(=O)O)C(C)C(O)C5OC)O4)O3)O2)OC1C` (stereo not shown) [UK-61,689], the MIC came out at 50 µg/mL (≈ 57.3 µM) in experiment [2] (Clostridium perfringens strain 10A006); 12.5 µg/mL (≈ 14.3 µM) in [2] (Clostridium perfringens strain 10A009); 50 µg/mL (≈ 57.3 µM) in experiment [3] (Actinomyces pyogenes strain 14D008); 50 µg/mL (≈ 57.3 µM) in experiment [3] (Actinomyces pyogenes strain 14D011); 50 µg/mL (≈ 57.3 µM) in experiment [3] (Trueperella pyogenes, Actinomyces pyogenes strain 14D002, read-out: MIC); 3.12 µg/mL (≈ 3.57 µM) in [4] (Brachyspira hyodysenteriae, 24 h, Treponema hyodysenteriae strain 94A001). Also, the MIC in experiment [4] (Brachyspira hyodysenteriae, 24 h, Treponema hyodysenteriae strain 94A002) worked out at 3.12 µg/mL (≈ 3.57 µM); in experiment [4] (Brachyspira hyodysenteriae, Treponema hyodysenteriae strain 94A007, 24 hours, read-out: MIC), 1.56 µg/mL (≈ 1.79 µM); in experiment [4] (Treponema hyodysenteriae strain 94A008, 24 hours) it was 1.56 µg/mL (≈ 1.79 µM). For the same compound, the “inhibitory action against the growth of Gram-positive microorganisms” value in experiment [5] is given as “exhibits inhibitory action against the growth of a number of Gram-positive microorganisms”. In addition, the “activity against coccidial infections in poultry” value in experiment [6] is reported as “excellent activity”. In [7], the “controlling infections due to E. maxima” value was “effective in controlling infections”. Further, the “controlling infections due to E. brunetti” value in experiment [8] is reported as “effective in controlling infections”. The “controlling infections due to E. necatrix” value in [9] was “effective in controlling infections”. In addition, the “controlling infections due to E. acervulina” value in experiment [10] is on record as “effective in controlling infections”. In [11], the “controlling infections due to Eimeria tenella” value was “effective in controlling infections”.
